# Like-named read-outs stand apart in the source and are kept apart here.
# How the values were obtained:
# [1] = target: T1, Farnesyl protein transferase (FPT) (Rattus norvegicus, UniProt Q02293+Q04631); assay: In vitro enzyme assay: inhibition of farnesyl protein transferase (transfer of [3H]farnesyl from [3H]farnesyl pyrophosphate to Ras-CVLS); type: biochemical
# T1 construct: Farnesyl protein transferase (FPT) was partially purified from rat brain; from tissue; host or cells: rat brain
# Text: 1. In vitro enzyme assays: Inhibition of farnesyl protein transferase and geranylgeranyl protein transferase.
# Farnesyl protein transferase (FPT) was partially purified from rat brain by ammonium sulfate fractionation followed by Q-Sepharose (Pharmacia, Inc.) anion exchange chromatography essentially as described by Yokoyama et al (Yokoyama, K., et al., (1991), A protein geranylgeranyltransferase from bovine brain: Implications for protein prenylation specificity, Proc. Natl. Acad. Sci USA 88: 5302-5306, the disclosure of which is incorporated herein by reference thereto). Human famesyl protein transferase was also expressed in E. coli, using cDNA clones encoding both the a and b subunits. The methods used were similar to those published (Omer, C. et al., (1993), Characterization of recombinant human farnesyl protein transferase: Cloning, expression, famesyl diphosphate binding, and functional homology with yeast prenyl-protein transferases, Biochemistry 32:5167-5176). Human famesyl protein transferase was partially-purified from the soluble protein fraction of E. coli as described above. […] Two forms of val^12-Ha-Ras protein were prepared as substrates for these enzymes, differing in their carboxy terminal sequence. One form terminated in cysteine-valine-leucine-serine (Ras-CVLS) the other in cystein-valine-leucine-leucine (Ras-CVLL). Ras-CVLS is a substrate for the famesyl protein transferase while Ras-CVLL is a substrate for geranylgeranyl protein transferase I. The cDNAs encoding these proteins were constructed so that the proteins contain an amino-terminal extension of 6 histidine residues. Both proteins were expressed in Escherichia coli and purified using metal chelate affinity chromatography. The radiolabelled isoprenyl pyrophosphate substrates, [^3H]farnesyl pyrophosphate and [^3H]geranylgeranyl pyrophosphate, were purchased from DuPont/New England Nuclear.
# Several methods for measuring famesyl protein transferase activity have been described (Reiss et al 1990, Cell 62: 81; Schaber et al 1990, J. Biol. Chem. 265: 14701; Manne et al 1990, PNAS 87: 7541; and Barbacid & Manne 1993, U.S. Patent No. 5,185,248). […] The reaction was allowed to proceed for 30 minutes at room temperature and then stopped with 0.5 ml of 4% sodium dodecyl sulfate (SDS) followed by 0.5 ml of cold 30% TCA. Samples were allowed to sit on ice for 45 minutes and precipitated Ras protein was then collected on GF/C filter paper mats using a Brandel cell harvester. Filter mats were washed once with 6% TCA, 2% SDS and radioactivity was measured in a Wallac 1204 Betaplate BS liquid scintillation counter. Percent inhibition was calculated relative to the DMSO vehicle control.
# [2] = system: Ras processing in COS monkey kidney cells; assay: Cell-based assay: transient expression of val12-Ha-Ras-CVLS in COS cells, effect on Ras processing (immunoblot); conditions: Primates, read-out: INHIBITION OF RAS PROCESSING IC50
# Text: 2. Cell-Based Assay: Transient expression of val^12-Ha-Ras-CVLS and val^12-Ha-Ras-CVLL in COS monkey kidney cells: Effect of famesyl protein transferase inhibitors on Ras processing and on disordered cell growth induced by transforming Ras.
# COS monkey kidney cells were transfected by electroporation with the plasmid pSV-SPORT (Gibco/BRL) containing a cDNA insert encoding either Ras-CVLS or Ras-CVLL, leading to transient overexpression of a Ras substrate for either famesyl protein transferase or geranylgeranyl protein transferase I, respectively (see above).
# Following electroporation, cells were plated into 6-well tissue culture dishes containing 1.5 ml of Dulbecco's-modified Eagle's media (GIBCO, Inc.) supplemented with 10% fetal calf serum and the appropriate famesyl protein transferase inhibitors. After 24 hours, media was removed and fresh media containing the appropriate drugs was re-added.
# 48 hours after electroporation cells were examined under the microscope to monitor disordered cell growth induced by transforming Ras. Cells expressing transforming Ras become more rounded and refractile and overgrow the monolayer, reminiscent of the transformed phenotype. Cells were then photographed, washed twice with 1 ml of cold phosphate-buffered saline (PBS) and removed from the dish by scraping with a rubber policeman into 1 ml of a buffer containing 25 mM Tris, pH 8.0; 1 mM ethylenediamine tetraacetic acid; 1 mM phenylmethylsulfonyl fluoride; […]; and 0.1 mM pepstatin. Cells were lysed by homogenization and cell debris was removed by centrifugation at 2000 × g for 10 min.
# Cellular protein was precipitated by addition of ice-cold trichloroacetic acid and redissolved in […] of SDS-electrophoresis sample buffer. Samples ([…]) were loaded onto 14% polyacrylamide minigels (Novex, Inc.) and electrophoresed until the tracking dye neared the bottom of the gel. Proteins resolved on the gels were electroblotted onto nitrocellulose membranes for immunodetection.
# Membranes were blocked by incubation overnight at 4°C in PBS containing 2.5% dried milk and 0.5% Tween-20 and then incubated with a Ras-specific monoclonal antibody, Y13-259 (Furth, M.E., et al., (1982), Monoclonal antibodies to the p21 products of the transforming gene of Harvey murine sarcome virus and of the cellular ras gene family, J. Virol. 43: 294-304), in PBS containing 1% fetal calf serum for one hour at room temperature. After washing, membranes were incubated for one hour at room temperature with a 1:5000 dilution of secondary antibody, rabbit anti-rat IgG conjugated to horseradish peroxidase, in PBS containing 1% fetal calf serum. The presence of processed and unprocessed Ras-CVLS or Ras-CVLL was detected using a colorimetric peroxidase reagent (4-chloro-1-naphthol) as described by the manufacturer (Bio-Rad).
# [3] = FPT INHIBITION; read-out: FPT IC50
# [4] = read-out: FPT IC50; FPT INHIBITION
# T1 sequence (Q02293 whole entry, one chain of several): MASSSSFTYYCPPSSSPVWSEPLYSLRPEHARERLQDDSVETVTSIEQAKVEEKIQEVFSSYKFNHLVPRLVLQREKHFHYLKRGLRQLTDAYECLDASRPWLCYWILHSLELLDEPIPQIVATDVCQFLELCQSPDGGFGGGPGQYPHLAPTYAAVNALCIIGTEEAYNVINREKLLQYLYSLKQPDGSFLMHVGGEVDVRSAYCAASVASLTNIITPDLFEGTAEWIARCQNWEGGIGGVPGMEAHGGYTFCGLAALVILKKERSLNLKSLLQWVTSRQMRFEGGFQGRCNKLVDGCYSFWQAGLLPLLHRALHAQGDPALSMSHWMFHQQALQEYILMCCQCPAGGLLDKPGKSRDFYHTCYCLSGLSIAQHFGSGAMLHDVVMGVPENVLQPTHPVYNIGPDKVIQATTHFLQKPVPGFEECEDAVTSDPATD
"IC50 [1, 3] [nM]",Structure (SMILES),IC50 ([2]; ACTIVITY IN COS CELLS) [nM],also measured
15,"CN(C)C(=O)CCC(=O)N1CCC(C2c3ncc(Br)cc3CCc3cc(Cl)cc(Cl)c32)CC1 (single isomer, unassigned) [Example 13]",200,
16,"O=C(CCC(=O)N1CCC(C2c3ncc(Br)cc3CCc3cc(Cl)cc(Cl)c32)CC1)N1CCCC1 (single isomer, unassigned) [Example 14]",250,
19,"COC(=O)CCCC(=O)N1CCC([C@H]2c3ncc(Br)cc3CCc3cc(Cl)cc(Br)c32)CC1 [Example 51, (+)-METHYL 4-(3,10-DIBROMO-8-CHLORO-6,11-DIHYDRO-5H-BENZO[5,6]CYCLO-HEPTA[1,2-b]PYRIDIN-11(R)-YL)-DELTA-OXO-1-PIPERIDININE PENTANOATE]",,
10,"NC(=O)CCCC(=O)N1CCC([C@H]2c3ncc(Br)cc3CCc3cc(Cl)cc(Br)c32)CC1 [Example 53, (+)-4-(3,10-DIBROMO-8-CHLORO-6,11-DIHYDRO-5H-BENZO[5,6]CYCLO-HEPTA[1,2-b]PYRIDIN-11(R)-YL)-DELTA-OXO-1-PIPERIDININE PENTANAMIDE]",,
7,"NC(=O)CCCCC(=O)N1CCC([C@H]2c3ncc(Br)cc3CCc3cc(Cl)cc(Br)c32)CC1 [Example 56, (+)-4-(3,10-DIBROMO-8-CHLORO-6,11-DIHYDRO-5H-BENZO[5,6]CYCLO-HEPTA[1,2-b]PYRIDIN-11(R)-YL)-EPSILON-OXO-1-PIPERIDININE HEXANAMIDE]",,

# Continued, molecule first:
Structure (SMILES),"IC50 [1, 3] [nM]",IC50 ([2]; ACTIVITY IN COS CELLS) [nM],also measured
"O=C(CN1CCCC1=O)N1CCC(C2c3ncc(Br)cc3CCc3cc(Cl)cc(Cl)c32)CC1 (single isomer, unassigned) [Example 10]",19,500,
"O=C(NCCCC(=O)N1CCC(C2c3ncc(Br)cc3CCc3cc(Cl)cc(Cl)c32)CC1)c1cccnc1 (single isomer, unassigned) [Example 18]",,540,inhibition at 0.093 µM ([1]; @ 93 nM; read-out: FPT inhibition (percent inhibition)): 9%
"CN(C)CCCC(=O)N1CCC(C2c3ncc(Br)cc3CCc3cc(Cl)cc(Br)c32)CC1 (single isomer, unassigned; (+)) [Example 2, (+)-4-(3,10-DIBROMO-8-CHLORO-6,11-DIHYDRO-5H-BENZO[5,6]CYCLO-HEPTA[1,2-b]PYRIDIN-11-YL)-1-[4-(DIMETHYLAMINO)-1-OXOBUTYL]PIPERIDINE]",4,13,
"O=C(O)CCCC(=O)N1CCC([C@H]2c3ncc(Br)cc3CCc3cc(Cl)cc(Br)c32)CC1 [Example 52, (+)-SODIUM 4-(3,10-DIBROMO-8-CHLORO-6,11-DIHYDRO-5H-BENZO[5,6]CYCLO-HEPTA[1,2-b]PYRIDlN-11(R)-YL)-DELTA-OXO-1-PI[…]]",,,"IC50 [1, 4]: 44 nM"
"COC(=O)CCCCC(=O)N1CCC([C@H]2c3ncc(Br)cc3CCc3cc(Cl)cc(Br)c32)CC1 [Example 54, (+)-METHYL 4-(3,10-DIBROMO-8-CHLORO-6,11-DIHYDRO-5H-BENZO[5,6]CYCLO-HEPTA[1,2-b]PYRIDIN-11(R)-YL)-EPSILON-OXO -1-PIPERIDININE HEXANOATE]",15,,
"O=C(O)CCCCC(=O)N1CCC([C@H]2c3ncc(Br)cc3CCc3cc(Cl)cc(Br)c32)CC1 [Example 55, (+)-SODIUM 4-(3,10-DIBROMO-8-CHLORO-6,11-DIHYDRO-5H-BENZO[5,6]CYCLO-HEPTA[1,2-b]PYRIDIN-11(R)-YL)-EPSILON-OXO-1-PI[…]]",,,"IC50 [1, 4]: 17 nM"
"COC(=O)CCCCCC(=O)N1CCC([C@H]2c3ncc(Br)cc3CCc3cc(Cl)cc(Br)c32)CC1 [Example 57, (+)-METHYL 4-(3,10-DIBROMO-8-CHLORO-6,11-DIHYDRO-5H-BENZO[5,6]CYCLO-HEPTA[1,2-b]PYRIDIN-11(R)-YL)-OMEGA-OXO-1-PIPERIDININE HEPTANOATE]",11,,
"O=C(O)CCCCCC(=O)N1CCC([C@H]2c3ncc(Br)cc3CCc3cc(Cl)cc(Br)c32)CC1 [Example 58, (+)-SODIUM 4-(3,10-DIBROMO-8-CHLORO-6,11-DIHYDRO-5H-BENZO[5,6]CYCLO-HEPTA[1,2-b]PYRIDIN-11(R)-YL)-OMEGA-OXO -1-PIPERIDININE HEPTANOATE]",9.1,,IC50 ([2]; COS): 300 nM
"NC(=O)CCCCCC(=O)N1CCC([C@H]2c3ncc(Br)cc3CCc3cc(Cl)cc(Br)c32)CC1 [Example 59, (+)-4-(3,10-DIBROMO-8-CHLORO-6,11-DIHYDRO-5H-BENZO[5,6]CYCLO-HEPTA[1,2-b]PYRIDIN-11(R)-YL)-OMEGA-OXO-1-PIPERIDININE HEPTANAMIDE]",3.3,,
